The values that follow come from patent US12017975B2, “Myc-Max inhibitor compound therapeutics for cancer treatment, methods and uses associated therewith” (THE UNIVERSITY OF BRITISH COLUMBIA, priority 2018, dated 2024).

“Also recorded” adds a separate entry of the source. Read-outs that look alike come from different tables or passages of the source.

The subject of data set [1] is LNCaP cells. As to the kind of experiment: PARP cleavage (apoptosis) by Western blot in LNCaP cells. Type of data set: cell-based. The procedure: After 48 hours of treatment with Myc compounds, LNCaP cells were lysed, and protein sample preparation followed by Western blotting were performed. Blots were incubated with primary antibodies against c-Myc, PARP (Sigma™ 084M4766V), PARP cleaved-Asp214 (Sigma™ SAB4500487) and β-Actin (Sigma™ A2066) overnight at 4° C., followed by appropriate peroxidase-conjugated secondary antibodies. β-actin served as an internal control. Visualization of the immunocomplexes was done by an enhanced chemiluminescence detection system (Millipore™) followed by exposure to X-ray films.
Apoptosis. Myc inhibition induces cell death by cell cycle arrest and apoptosis. Cleavage of PARP-1 by caspases is considered a hallmark of apoptosis and so we measured the ability of compounds to induce PARP cleavage after treatment.

In data set [2] the test system is LNCaP cells. As to the kind of experiment: LNCaP cell viability (PrestoBlue). Type of data set: cell-based. The conditions noted are these: Homo sapiens. The procedure:
(§1) LNCaP were plated at 5000 cells per well in RPMI 1640 containing 5% CSS in a 96-well plate, treated with test compounds (0-25 μM) for 96 hours. Cell density was measured using the PrestoBlue™ assay according to the manufacturer's protocol. The percentage of cell survival was normalized to the cell density of control wells treated by vehicle. Viability of Myc-negative […] cells was done similarly but in DMEM supplemented with 5% CSS.
(§2) The effect of hit compounds on Myc-driven cell proliferation was evaluated by measuring the cell viability of LNCaP cells after treatment with increasing concentrations of compounds.

A further data set addresses T1, Myc-Max complex (Homo sapiens, UniProt P01106+P61244).
T1 construct: GST tagged Myc (residues 368-454); Histidine tagged Max (residues 23-102); made in house; host or cells: E. coli BL21-DE3
Kind of data set: Biolayer interferometry of Myc-Max binding to biotinylated E-box DNA. The procedure:
Histidine tagged Max (residues 23-102) and GST tagged Myc (residues 368-454) were overexpressed in E. coli BL21-DE3 cells. Cells were co-lyzed in lysis buffer (20 mM Tris pH 8, 500 mM NaCl, 5% glycerol, 10 mM imidazole, 8 mM BME, 2.1 mM PMSF). After sonication and centrifugation, the complex was first purified by using a Ni-NTA affinity resin. After overnight dialysis to remove the imidazole, the protein sample was applied to a size exclusion chromatography equilibrated with (20 mM Tris pH 8, 150 mM NaCl, 5% glycerol, 0.2 mM TCEP). Fractions containing equal amount of Myc and Max on SDS PAGE were collected and used for the binding assay. The presence of both proteins was validated by Western blot using a specific antibody of each protein (Max (h2) Sc-8011 and c-Myc (9E10) Sc-40, Santa Cruz Biotechnology™)
The direct interaction between biotinylated E-box oligo ([…]) immobilized on a streptavidin biosensor and a purified Myc-Max complex (0.05 mg/ml) was quantified by BLI using OctetRED (ForteBio™). The DNA was first bound to the super-streptavidin sensors over 1000 sec at 25° C. The sensors were next moved into wells containing the reaction buffer (20 mM Tris pH 8, 150 mM NaCl, 5% glycerol, 0.2 mM TCEP, 5% dimethylsulfoxide) for measuring the baseline and next into the Myc-Max complex alone or in presence of the tested inhibitors to study the association of the complex to the DNA.
Direct Binding and disruption of protein-DNA interaction. To study the direct effect of our hit compounds VPC-70063 and VPC-70067 on the interaction between Myc-Max heterodimer and the DNA, we used Bio-Layer Interferometry (BLI, ForteBio™). This technique is a label-free technology allowing the measurement of direct interactions between two partners, one immobilized on a sensor and the other one present in a solution. We applied this technology to study the disruption of the interaction between a biotinylated E-box oligo immobilized on a streptavidin biosensor and a purified Myc-Max complex in presence of our compounds. Therefore, histidine-tagged Max (residues 23-102) and GST tagged Myc (residues 368-454) were overexpressed and co-purified. The fraction containing equal amount of Myc and Max was collected and used for the binding assay (FIG. 3B). The presence of both proteins was validated by Western blot using a specific antibody of each protein. […] Additionally, we tested the ability of our best compound VPC-70063 to disrupt the interaction of MYC/MAX with DNA in a dose dependent manner.

Data set [3] is described as follows: Cell viability of Myc negative (c-Myc knockout) HO15.19 cells. It counts as cell-based. The conditions noted are these: rat, HO15.19 cells (c-Myc knockout, Myc-negative); 25 μM; read-out: % inhibition of Myc negative HO15.19 cells (cytotoxicity). The procedure:
as §1, §2

The test system of the next data set is HO15.19 cells. Described as above. It counts as cell-based. The procedure:
as §1, §2

In data set [4] the test system is Myc-Max/UBE2C downstream pathway. Kind of data set: UBE2C promoter luciferase reporter assay in 22rv1 cells. It counts as cell-based. The procedure: Cell transfection was performed using TransIT-2020™ transfection reagents according to the manufacturer's instructions (Mirus™). LNCaP cells were plated at 10000 cells per well and treated for 1 day with the indicated concentration of compound. Myc reporter activity was measured using the Cignal Myc Reporter Assay Kit™ from Qiagen™ (#336841) according to the manufacturer's instructions. For the UBE2C reporter assay, 22rv1 cells were plated at 10000 cells per well in 96-well plates in RPMI media supplemented with 5% charcoal-stripped serum (CSS) and treated for 1 day with 1 μM, 10 μM and 25 μM of compound.
Myc inhibition was recently reported to reduce levels of the constitutively active androgen receptor splice variant AR-V7 in 22rv1 cells. […] The dose-dependent reduction of luciferase levels by the identified hits indicates a Myc-related reduction of AR-V7 level in the cells (see TABLE 1). […] The AR-V7 reduction with the hits was confirmed by Western blot (FIG. 2B).

In another data set the target is T2, Myc-Max interaction (Homo sapiens, UniProt P01106).
T2 construct: expressed in transfected cells; host or cells: PC3 cells
T2 sequence (P01106 whole entry): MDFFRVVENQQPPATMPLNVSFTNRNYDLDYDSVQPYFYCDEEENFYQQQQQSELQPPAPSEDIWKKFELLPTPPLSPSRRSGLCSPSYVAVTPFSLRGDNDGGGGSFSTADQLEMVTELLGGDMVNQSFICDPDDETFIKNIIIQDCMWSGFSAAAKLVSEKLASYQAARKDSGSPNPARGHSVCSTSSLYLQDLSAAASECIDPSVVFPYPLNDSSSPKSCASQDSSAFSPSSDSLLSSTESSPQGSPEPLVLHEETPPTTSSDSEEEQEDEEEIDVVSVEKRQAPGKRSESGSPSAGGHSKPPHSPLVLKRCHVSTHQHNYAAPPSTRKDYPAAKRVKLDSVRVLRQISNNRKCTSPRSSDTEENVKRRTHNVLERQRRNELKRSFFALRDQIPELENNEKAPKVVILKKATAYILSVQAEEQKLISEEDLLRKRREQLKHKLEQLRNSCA
Kind of data set: Mammalian two-hybrid assay in PC3 cells. It counts as cell-based. Conditions: various concentrations. The procedure: Full lengths Myc and Max were cloned in pBIND and pACT plasmids (CheckMate™, Promega™), respectively. PC3 cells in RPMI 1640 supplemented with 5% FBS were seeded in 96-well plates at 5,000 cells/well. After 24 hours, cells were transfected with 15 ng of pACT-Max, 19.5 ng of pBIND-Myc, and 13.6 ng of the reporter plasmid PG5-luciferase. After 24 hours, cells were treated with various concentrations of the tested inhibitors. Cells were lysed the next day, and the luminescence signal was measured after adding 50 μL of luciferase assay reagent (Promega™). Each measurement was done in 4 replicates with biological replicates of 3. Luciferase levels corresponding to Myc-Max interactions were measured and normalized to a control provided by the commercial kit to discard non-specific effect due to toxicity or direct luciferase inhibition.
The effect of inhibitors of Myc-Max interaction was studied by using a mammalian two hybrid assay. Full lengths Myc and Max were cloned in pBIND and pACT plasmids (CheckMate™, Promega™), respectively. Luciferase levels corresponding to Myc-Max interactions were measured and normalized to a control provided by the commercial kit to discard non-specific effect due to toxicity or direct luciferase inhibition.

Data set [5] relates to Myc-Max transcriptional activity. As to the kind of experiment: Cignal c-Myc luciferase reporter assay in LNCaP cells. Type of data set: cell-based. Conditions: Homo sapiens. In short, it runs like this: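 Transiently transfected Myc-driven luciferase reporter in LNCaP cells, 10000 cells/well, treated 1 day with compound at the indicated concentrations; luminescence read-out of Myc-regulated signal.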

T1 sequence (P01106 368-454): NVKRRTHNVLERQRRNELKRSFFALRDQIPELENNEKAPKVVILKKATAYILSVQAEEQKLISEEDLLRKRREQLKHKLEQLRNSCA
T1 sequence (P61244 23-102): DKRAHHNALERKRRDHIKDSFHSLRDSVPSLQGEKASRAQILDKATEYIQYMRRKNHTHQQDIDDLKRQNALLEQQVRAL

As to `FC(F)(F)c1cc(NC(=S)NCc2ccccc2)cc(C(F)(F)F)c1` [VPC-70063, 1-benzyl-3-(3,5-bis(trifluoromethyl)phenyl)thiourea], the “PARP cleavage / apoptosis” value with LNCaP cells [1] (LNCaP cells, Western blot) was “inducing PARP cleavage; also recorded: induces apoptosis”. For the same compound, in the data set with LNCaP cells [1] (TABLE 2, LNCaP cells), the PARP effect entry was “strong”. For the same compound, the inhibition at 3 µM with LNCaP cells [2] (3 μM, read-out: % of LNCaP cells inhibited) came to 70%. For the same compound, the IC50 came out at 2.5 µM in the data set on LNCaP cells [2] (96 hours, 0-25 μM, read-out: IC50 LNCaP cell proliferation / viability); 9 µM in data set [5] (LNCaP, TABLE 2, assay not named, values match Myc-Max transcriptional activity, read-out: IC50); 8.9 µM in data set [5] (LNCaP cells, dose response, Cignal c-Myc kit, read-out: IC50 Myc-Max transcriptional activity). For the same compound, the “Myc-Max interaction with immobilized E-box DNA” value on Myc-Max complex (500 μM compound (FIG. 3C)) is “prevented from interacting with the immobilized DNA”. The BLI binding entry on Myc-Max complex (TABLE 2) is given as “strong”. The “effect on Myc-Max/DNA complex dissociation” value at Myc-Max complex (concentration below 100 μM) is given as “did not see any significant effect”. At Myc-Max complex (concentration higher than 100 μM), the “MYC/MAX binding to DNA” value is reported as “dose response decrease of the MYC/MAX binding to DNA”. Besides, in data set [3], the inhibition at 96 h, 25 µM stood at 40%. In the data set with HO15.19 cells (3 μM), the “effect on c-Myc knockout cells” value was “no significant effect”. In addition, the inhibition at 2.5 µM in the data set with HO15.19 cells (Rattus norvegicus, HO15.19, 2.5 μM (IC50 in LNCaP cells)) was about 7%. Further, the inhibition at 12 µM with HO15.19 cells (Rattus norvegicus, HO15.19, read-out: % inhibition Myc K.O cells (12 uM)) is 35%. Also, the “reduction of UBE2C promotor activity” value in data set [4] was “highest reduction of UBE2C promotor activity”. Besides, the inhibition at 25 µM in data set [4] (Homo sapiens, 25 μM) is 94%; in data set [5] (LNCaP, TABLE 3, read-out: % Inhibition 25 μM), 106%; in data set [5] (LNCaP, 24 h, LNCaP cells, TABLE 1, read-out: Myc-Max transcriptional activity % inhibition (25 μM)), 106%. Besides, the “effect on Myc-Max interaction” value at Myc-Max interaction is “dose response inhibition of the interaction between the two proteins”.
